Data on three compounds can be found in PMC12810351, “Structure-effect relationship of phenolic compounds on α-amylase inhibition studied by isothermal titration calorimetry” (Current Research in Food Science, 2025).

Assay [1] concerns the target T1, porcine pancreatic α-amylase (Sus scrofa, UniProt P00690).
T1 sequence (P00690 16-511): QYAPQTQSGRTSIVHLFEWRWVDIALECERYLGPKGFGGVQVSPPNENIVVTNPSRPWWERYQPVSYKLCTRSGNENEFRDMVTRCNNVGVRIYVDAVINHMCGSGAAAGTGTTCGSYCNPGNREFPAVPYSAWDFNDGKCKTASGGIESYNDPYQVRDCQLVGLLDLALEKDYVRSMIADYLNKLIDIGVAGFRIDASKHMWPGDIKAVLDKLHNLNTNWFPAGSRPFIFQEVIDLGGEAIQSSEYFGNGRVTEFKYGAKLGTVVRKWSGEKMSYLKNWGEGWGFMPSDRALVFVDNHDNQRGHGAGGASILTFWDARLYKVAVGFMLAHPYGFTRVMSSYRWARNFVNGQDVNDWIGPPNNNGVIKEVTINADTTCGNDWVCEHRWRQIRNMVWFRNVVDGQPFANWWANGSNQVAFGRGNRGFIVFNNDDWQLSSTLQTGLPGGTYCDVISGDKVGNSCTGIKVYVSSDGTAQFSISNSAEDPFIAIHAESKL
The assay is described as follows: starch hydrolysis by α-amylase monitored by isothermal titration calorimetry (ITC). It is filed as biochemical. The note with it: for remaining activity at 25 µM: 25 μM EGCG; for inhibition mechanism suggested by Kic/Kiu ratios: polyphenol standards. The procedure: The amylase stock solution was diluted each day and stored during the day at 4 °C.
The experiments were conducted using an Affinity ITC LV instrument with a cell volume of 182 μL (TA Instruments, Eschborn, Germany). […] These controls were conducted to determine the optimal injection volume to achieve maximal velocity (vmax) (S11). […] Enzyme kinetic constants were determined at 310 K.
The heat released during starch conversion was continuously monitored, with calculations performed using Microsoft Excel® software. The enzymatic rate (v) is directly proportional to the measured thermal power (eq (1)).(1) v=dP/dt=1/Vcell·ΔRHapp·dQ/dt
The reaction enthalpy ( ΔRHapp ) is determined by integrating the heat peak over its entire duration, divided by the number of substrate molecules converted:(2) ΔRHapp=∫t=0∞dQ/dtdt/nS
(dQ/dt)max [%], ΔRHapp [%] und vmax [%] are calculated in relation to daily control.
The substrate concentration at time t ([S]t) is calculated according to eq (3).(3) [S]t=∫t∞dQ/dtdt/∫0∞dQ/dtdt·[S]t=0
Therefore, the thermogram contains all the required data for calculating inhibition constants. The maximal conversion rate vmax and the Michaelis-Menten constant Km are determined from control experiments conducted in the absence of an inhibitor. In the presence of an inhibitor [I] the apparent values of vmaxapp and Kmapp are obtained. Competitive inhibition (Kic, eq (5)) is due to the formation of an enzyme-inhibitor complex (EI), whereas uncompetitive inhibition (Kiu, eq (5)) occurs when an inhibitor binds to a […]:(5) Kic=vmaxapp/Kmapp·[I]/(vmax/Km)−(vmaxapp/Kmapp)Kiu=vmaxapp·[I]/vmax−vmaxapp
The IC50 value, a key pharmacological metric, is used to compare the potency of inhibitors. […] The conversion rate (v0) was calculated from the thermogram according to eq (1), and subsequently plotted against the […]
For orientation: In ITC the heat of successive injections is recorded.

Assay [2] concerns the target α-amylase. Details: method as in Kaeswurm et al. (2019). The note with it: substrate GalG2CNP, CNP UV/Vis, ref Kaeswurm et al. (2019), cited from earlier work.
Assay [3] deals with α-amylase. Details: method as in Nyambe-Silavwe et al. (2015). The note with it: substrate amylose, amylopectin, DNS UV/Vis; ref Nyambe-Silavwe et al. (2015); cited from earlier work.
Assay [4] concerns the target α-amylase. More on the design: method as in Narita and Inouye (2011). The following applies: substrate G2-pNP, pNP UV/Vis, ref Narita and Inouye (2011), cited from earlier work.
Assay [5] concerns the target α-amylase. The following applies: substrate starch, DNS UV/Vis, cited from earlier work.
Assay [6] deals with α-amylase. Details: method as in Zheng et al. (2020). The note with it: substrate starch, D-glucose assay UV/Vis, ref Zheng et al. (2020), cited from earlier work.
[7] abbreviates: calculated based on the mass concentration.
The mark [8] stands for this setting: calculated based on the mass concentration, read-out: Kic [g/L] (converted).
[9] abbreviates: calculated based on the mass concentration, read-out: Kiu [g/L] (converted).
Setting [10] is: competitive inhibition constant, substrate starch, ITC, 100 μM polyphenol (EGCG 25 μM), read-out: Kic.
The mark [11] stands for this setting: substrate starch, ITC, calculated by eq (6), substrate concentration of 1 M (IC50 equivalent to Kiu), read-out: IC50*.
The mark [12] stands for this setting: uncompetitive inhibition constant, substrate starch, ITC, 100 μM polyphenol (EGCG 25 μM), read-out: Kiu.
Setting [13] is: 100 μM polyphenol, relative to control, read-out: vmax [%].

Each structure is given as a SMILES string. Like-named read-outs stand apart in the source and are kept apart here.

For `O=C(O[C@@H]1Cc2c(O)cc(O)cc2O[C@@H]1c1cc(O)c(O)c(O)c1)c1cc(O)c(O)c(O)c1` [EGCG, epigallocatechin gallate], the remaining activity at 25 µM amounted to 38 ± 4% in assay [1] (relative to control, read-out: (dQ/dt)max [%]) and 49 ± 2% in assay [1] (relative to control, read-out: vmax [%]). The “reversibility of inhibition (from ΔRHapp)” value in assay [1] (100 μM polyphenol (EGCG 25 μM)) is “irreversible aggregation”. Moreover, the “α (Kic/Kiu)” value in assay [1] (setting [7]) is 0.73 ± 0.01. For the same compound, the Ki in assay [1] (setting [8]) was 21.8 µM; in assay [1] (setting [9]), 21.8 µM; in assay [1] (setting [10]), 19 ± 2 µM; in assay [1] (setting [12]), 26 ± 2 µM; on α-amylase [2] (read-out: Kic) it was 124 µM; on α-amylase [2] (read-out: Kiu), 58 µM. The “inhibition mechanism suggested by Kic/Kiu ratios” value in assay [1] is recorded as “preferentially bind to the enzyme”. In addition, the inhibition type entry in assay [1] (substrate starch, ITC) is on record as “mixed”. For the same compound, the IC50 is 25 ± 2 µM in assay [1] (setting [11]), 58 µM on α-amylase [2] and 5.3 to 60 µM at α-amylase [3].
With `O=C(/C=C/c1ccc(O)c(O)c1)O[C@@H]1C[C@](O)(C(=O)O)C[C@@H](O)[C@H]1O` [CA, Chlorogenic acid], the remaining activity at 100 µM in assay [1] (setting [13]) is 72 ± 6%; in assay [1] (read-out: (dQ/dt)max [%]), 77 ± 5%. For the same compound, the “α (Kic/Kiu)” value in assay [1] (setting [7]) is 0.70 ± 0.03. Besides, the IC50 in assay [1] (calculated based on the mass concentration, read-out: IC50 [g/L] (converted)) was 198 µM; in assay [1] (setting [11]) it was 278 ± 100 µM; on α-amylase [4] it was 400 µM; on α-amylase [5] (ref Souza Schmidt Gonçalves et al. (2010)), 3.9 µM; at α-amylase [2], 413 µM. The Ki in assay [1] (setting [8]) was 198 µM; in assay [1] (setting [9]), 282 µM; in assay [1] (setting [10]), 195 ± 68 µM; in assay [1] (setting [12]), 279 ± 100 µM; at α-amylase [4] (read-out: Kic) it was 1120 µM; at α-amylase [4] (read-out: Kiu), 270 µM. Moreover, the Ki at α-amylase [2] (read-out: Kic) was 406 µM; at α-amylase [2] (read-out: Kiu), 413 µM. Moreover, the “inhibition mechanism suggested by Kic/Kiu ratios” value in assay [1] is listed as “preferentially bind to the enzyme”. In addition, the inhibition type result in assay [1] (substrate starch, ITC) was “mixed”.
`COc1cc(/C=C/C(=O)O)ccc1O` [FA, ferulic acid]: the remaining activity at 100 µM in assay [1] (100 μM polyphenol, 26 nM α-amylase, starch, 310 K, relative to control without inhibitor, read-out: (dQ/dt)max [%]) amounted to 94 ± 12%; in assay [1] (setting [13]) it was 95 ± 3%. In assay [1] (setting [7]), the “α (Kic/Kiu)” value was 0.67 ± 0.30. Moreover, the Ki was 1240 µM in assay [1] (setting [8]); 2370 µM in assay [1] (setting [9]); 1240 ± 235 µM in assay [1] (setting [10]); 2360 ± 1480 µM in assay [1] (setting [12]); 11200 µM on α-amylase [4] (read-out: Kic); 4870 µM on α-amylase [4] (read-out: Kiu). The Ki is 3400 µM at α-amylase [6] (read-out: Kic) and 3630 µM on α-amylase [6] (read-out: Kiu). Moreover, the inhibition type result in assay [1] (substrate starch, ITC) is listed as “mixed”. The IC50 in assay [1] (setting [11]) is 2350 ± 1470 µM; at α-amylase [4] it was 5450 µM; at α-amylase [6] it was 3200 µM; on α-amylase [5] (ref Aleixandre et al. (2022)), greater than 5150 µM.
